Measured values as given in patent US20150202196A1, “Methods of Using C-Met Modulators” (priority 2010, published 2015).

How the values were obtained:
[1] = system: primary human pancreatic cancer; experiment: Orthotopic implants of primary human pancreatic cancer in the pancreatic tail of NOD/SCID mice: bioluminescent tumor growth and cancer stem cells; type: in vivo; settings: for effect on cancer stem cell population (in words): CD44+CD24+ESA+; for effect on cancer stem cell population (in words) / % of CD44+CD24+ESA+ cancer stem cells in tumor: flow cytometry; for % of CD44+CD24+ESA+ cancer stem cells in tumor: table title says subcutaneous xenograft tumor, text cites it for orthotopic implants; for tumor growth during the 4 week treatment: orthotopic tumors, bioluminescent imaging, versus controls
Description: Sorted cells or bulk pancreatic tumor cells were washed with serum free HBSS and suspended in serum free-RPMI1640/Matrigel mixture (1:1 volume), followed by injection into the subcutaneous tissue of the right and left mid-abdominal area using a 27-gauge needle. In separate experiments, mice were anesthetized with an i.p. injection of 100 mg/kg ketamine and 5 mg/kg xylazine, and a small median laparotomy was performed. Five thousand sorted cells or 1-5×10^5 bulk tumor cells resuspended in PBS/Matrigel mixture (1:1) in a volume of 100 µl were injected into the tail of the pancreas using a 30-gauge needle. […] Animals then underwent autopsy, and tumor growth was accessed after 4 to 8 weeks.
To validate the findings with bioluminescent imaging, mice were euthanized with carbon dioxide inhalation, and autopsies were performed to assess the extent of primary tumor growth and metastasis.
The same three pancreatic cancers used for the subcutaneous tumor implantation experiments were infected with a lentivirus expressing luciferase to allow imaging in real time, and cells were injected into the pancreatic tail.
Tumor size and volume were measured weekly using Xenogen IVIS 200 imaging system throughout the experiment period.

[2] = system: human pancreatic adenocarcinomas; type: in vivo; settings: for % of CD44+c-Met+ cancer stem cells in tumor: flow cytometry after 4 weeks treatment; for tumor growth during the 4 week period of treatment: subcutaneous tumor volume, weekly, FIG. 8B; for effect on cancer stem cell population (in words): CD44+c-Met+, flow cytometry; for tumor growth following cessation of treatment: versus untreated tumors
Description: Samples of human pancreatic adenocarcinomas were obtained. Within 60 minutes following surgical resection, tumors were suspended in sterile RPMI medium 1640 (available from Sigma-Aldrich®), mechanically dissociated using scissors, then minced with a sterile scalpel blade over ice to yield 2×2 mm pieces. The tumor pieces were washed with serum-free PBS before implantation. Eight-week-old male NOD/SCID mice were anesthetized using an i.p. injection of 100 mg/kg ketamine and 5 mg/kg xylazine. NOD/SCID mice are publically available from Charles River Laboratories International in Wilmington, Mass. A 5-mm incision was then made in the skin overlying the mid-abdomen, and three pieces of tumor were implanted subcutaneously. The skin incision was closed with absorbable suture. The mice were monitored weekly for tumor growth for 16 to 20 weeks. After establishment of xenografts, studies were performed on passage 2 tumors.
Xenograft tumors or primary human tumors were cut up into small pieces with scissors, and then minced completely using sterile scalpel blades. To obtain single cell suspensions, the resultant minced tumor pieces were mixed with ultra-pure collagenase IV (Worthington Biochemical, Lakewood, N.J.) in medium 199 (200 units of collagenase per ml) and allowed to incubate at 37° C. for 1 to 1.5 hours for enzymatic dissociation. The specimens were further mechanically dissociated every 10 minutes by pipetting with a 10-ml pipette. At the end of the incubation, cells were filtered through a 40-μm nylon mesh, washed with HBSS/20% FBS, and then washed twice with HBSS.
Sorted cells or bulk pancreatic tumor cells were washed with serum free HBSS and suspended in serum free-RPMI1640/Matrigel mixture (1:1 volume), followed by injection into the subcutaneous tissue of the right and left mid-abdominal area using a 27-gauge needle. In separate experiments, mice were anesthetized with an i.p. injection of 100 mg/kg ketamine and 5 mg/kg xylazine, and a small median laparotomy was performed. Five thousand sorted cells or 1-5×10^5 bulk tumor cells resuspended in PBS/Matrigel mixture (1:1) in a volume of 100 µl were injected into the tail of the pancreas using a 30-gauge needle. PBS stands for phosphate buffered saline, which can be obtained from Thermo Fisher Scientific Inc. Six mice were inoculated per test group. Animals then underwent autopsy, and tumor growth was accessed after 4 to 8 weeks. Tissues were fixed in formaldehyde and were examined histologically or dissociated to generate single cell suspensions for further study.
[…]. CD44 and c-Met are both markers on pancreatic cancer stem cells.
. Subcutaneous tumor volume was assessed weekly. […] Half of the mice in each group were euthanized 4 weeks after initiation of treatment, and the tumors were dissociated and examined using flow cytometry to determine the percentage of c-Met+/CD44+ cancer stem cells within the tumors. The remaining mice were kept for an additional 8 weeks following cessation of treatment, and tumor volume was measured weekly. […]. […]. […]
Tumor size was measured weekly. Three mice of each group were euthanized after 4 weeks treatment for analysis of cancer stem cells, and the other mice were followed to monitor tumor growth for an additional 8 weeks. […] In FIG. 8B, the average tumor size±SEM from three separate tumors is presented. FIG. 8C depicts a graph of CSC percentage in different treatment groups. The percentage of the c-Met+/CD44+ tumorigenic cancer cell population in the total cancer cell population is indicated for each treatment.

[3] = Compound 1 30 mg/kg/day, GEM 100 mg/kg/twice weekly

Row | Compound | effect on cancer stem cell population (in words) [1] | % of CD44+CD24+ESA+ cancer stem cells in tumor [1] [%] | tumor growth during the 4 week treatment [1] | % of CD44+c-Met+ cancer stem cells in tumor [2, 3] [%] | tumor growth during the 4 week period of treatment [2] | decrease in CD44+c-Met+ cancer stem cell population ([2]; subcutaneous tumors, 4 weeks treatment, Compound 1 30 mg/kg/day, GEM 100 mg/kg/twice weekly) [%] | effect on cancer stem cell population (in words) ([2]; subcutaneous tumors) | tumor growth following cessation of treatment ([2]; subcutaneous tumors) | increase of the c-Met+CD44+ population ([2]; subcutaneous tumors, 4 weeks treatment, GEM 100 mg/kg/twice weekly) [%]
1 | COc1cc2nccc(Oc3ccc(NC(=O)C4(C(=O)Nc5ccc(F)cc5)CC4)cc3)c2cc1OC [Compound 1, N-(4-{[6,7-bis(methyloxy)quinolin-4-yl]oxy}phenyl)-N′-(4-fluorophenyl)cyclopropane-1,1-dicarboxamide] | significantly depleted | 0.61 | prevented tumor growth | 0.55 | significantly inhibited tumor growth | 83±3 | significantly depleted | grew more slowly than the untreated tumors | –
2 | Nc1ccn([C@@H]2O[C@H](CO)[C@@H](O)C2(F)F)c(=O)n1 [GEM, gemcitabine] | increases in the total number of pancreatic cancer stem cells | 4.3 | prevented tumor growth | 4.34 | significantly inhibited tumor growth | – | increases in the total number of pancreatic cancer stem cells | grew more slowly than the untreated tumors | 48±20
